Experimental data taken from publication PMC11173382, “In Vitro Investigations into the Potential Drug Interactions of Pseudoginsenoside DQ Mediated by Cytochrome P450 and Human Drug Transporters” (Molecules, 2024).

Legend:
[1] = cited from earlier work
hOAT3 = target: T1, hOAT3 (Homo sapiens, UniProt Q8TCC7); assay: Substrates uptake assay, S2-OAT3 cells (3H-ES); format: in vitro ADME; conditions: 3H-ES 0.05 µM, 2 min
T1 sequence (Q8TCC7 1-542): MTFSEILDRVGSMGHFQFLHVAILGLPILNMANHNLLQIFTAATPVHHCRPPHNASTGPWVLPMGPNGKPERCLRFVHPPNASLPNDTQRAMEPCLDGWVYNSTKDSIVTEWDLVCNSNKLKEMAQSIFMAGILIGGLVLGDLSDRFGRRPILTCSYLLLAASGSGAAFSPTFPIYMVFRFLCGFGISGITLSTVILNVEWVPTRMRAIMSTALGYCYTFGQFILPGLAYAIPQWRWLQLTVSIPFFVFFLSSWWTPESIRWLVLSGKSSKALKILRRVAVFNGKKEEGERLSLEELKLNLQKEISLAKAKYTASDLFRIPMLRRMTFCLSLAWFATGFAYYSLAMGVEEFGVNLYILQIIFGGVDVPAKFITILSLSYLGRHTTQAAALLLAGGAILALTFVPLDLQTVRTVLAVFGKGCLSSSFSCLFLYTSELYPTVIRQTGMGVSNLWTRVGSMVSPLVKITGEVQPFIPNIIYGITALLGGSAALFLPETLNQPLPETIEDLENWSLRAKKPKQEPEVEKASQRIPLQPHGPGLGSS

CYP2C19 = target: T2, CYP2C19 (Homo sapiens, UniProt P33261); assay: CYP450 inhibition assay in human liver microsomes, CYP2C19; format: in vitro ADME; conditions: HLM 0.1 mg/mL; probe S-mephenytoin 20 µM; 20 min
T2 construct: tissue Corning 452117; host or cells: human liver microsomes
T2 sequence (P33261 whole entry): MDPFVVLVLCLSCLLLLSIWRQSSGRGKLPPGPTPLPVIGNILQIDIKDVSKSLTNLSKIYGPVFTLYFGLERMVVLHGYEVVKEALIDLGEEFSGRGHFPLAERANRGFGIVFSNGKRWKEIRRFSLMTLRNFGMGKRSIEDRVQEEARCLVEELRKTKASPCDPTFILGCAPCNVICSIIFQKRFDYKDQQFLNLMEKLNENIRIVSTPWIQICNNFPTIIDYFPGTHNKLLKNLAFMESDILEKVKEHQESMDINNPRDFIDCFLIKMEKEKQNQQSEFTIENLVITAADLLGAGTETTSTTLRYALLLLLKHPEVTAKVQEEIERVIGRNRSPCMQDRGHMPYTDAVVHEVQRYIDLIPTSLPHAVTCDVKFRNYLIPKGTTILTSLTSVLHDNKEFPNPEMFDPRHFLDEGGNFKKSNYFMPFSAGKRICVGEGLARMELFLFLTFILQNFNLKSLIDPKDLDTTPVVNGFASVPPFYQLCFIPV
Procedure: To evaluate the reliability and reproducibility of the CYP450 inhibition assay, we measured the inhibitory effects of selected positive control inhibitors of each CYP450 enzyme in human liver microsomes (HLM, Table 1, Figure 2). The potency of inhibition was estimated by observing the alteration in concentration of metabolites of CYP450 substrates (Table 1).
Reagents preparation. […] The stock solution of PDQ (10 mM) was prepared with methanol and further diluted to the range of 3 µM to 3 mM with methanol to ensure that the solvent of different PDQ samples contained the same amount (1%) of methanol.
The stock solutions of the positive control inhibitors and the probe substrates of CYP450 enzymes were prepared in methanol.
CYP450 inhibition assay. […] The assay was conducted in polypropylene 96-well plates (2.2 mL/well, Apricot Designs Inc., Covina, CA, USA).
The total volume of the reaction is 200 μL. […] The substrates and analytes were analyzed by LC-MS/MS (API4000, Applied Biosystems, Singapore; HPLC, Shimadzu, Japan). […]
Data analysis. […] The IC50 was determined by fitting the dependence of the relative remaining activity (y = Vi/V0) to the following three-parameter equation (Equation (1)). […]

## CC(C)(O)[C@@H]1CC[C@@](C)([C@H]2CC[C@]3(C)[C@@H]2[C@H](O)C[C@@H]2[C@@]4(C)CC[C@H](O)C(C)(C)[C@@H]4CC[C@]23C)O1 [PDQ, (20S,24S)-dammar-20,24-epoxy-3β, 12β, 25-triol]
[1]; PDQ in gattate pills
  bioavailability: 62.13%
[1]; rat plasma
  biological half-time (t1/2): 5.97 ± 0.43 h
  concentration at peak (Cmax): 3265.12 ± 700.26 ng/mL
  time to peak (Tmax): 4.0 ± 0.0 h
[1]; rats, effective oral dosage 15 mg/kg, no reference given, read-out: peak concentration (Cmax)
  Cmax: 6.5 µM
[1]; rats, over 96 h
  cumulative amount excreted through feces: 55.39%
[1]; rats, single oral dose of 30.0 mg/kg
  long-term accumulation in tissues: no long-term accumulation
hOAT3
  IC50: > 30000 nM
CYP2C19
  IC50: 698 nM
